Data as given in PMC4066839 (MedChemComm, 2014).

System: C. neoformans
Assay: in vitro growth inhibition
Assay type: cell-based, Cryptococcus neoformans
Conditions: highest tested concentration 20 μg/mL; NA = not active

## COc1ccc(-c2nc(C[C@H](N)C(=O)N[C@@H](CCCNC(=N)N)C(=O)NCc3ccccc3)c[nH]2)cc1 [Peptide 5d]
  C. neoformans IC50 (concentration that affords 50% inhibition of growth): inactive
